Data: PMC10994559 (PLOS Neglected Tropical Diseases, 2024)
Where “and” joins values, the source holds several entries; their conditions need not be identical. Equal values may be shown once. Read-outs that look alike come from different tables or passages of the source.

How the values were obtained:
[1] = tested on: intracellular L. infantum amastigotes; assay: Parasite rescue assay (intramacrophage, J774 infected with L. infantum); assay type: cell-based, Leishmania infantum
E. histolytica = E. histolytica viability, ATP luminescence (Cell titer glo); assay type: cell-based, Entamoeba histolytica; conditions: Entamoeba histolytica, 48 h
Outline: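 E. histolytica strain B2-5 at 2.5x10^4 cells/ml was exposed to compound for 48 h at 37 °C under anaerobic conditions, with viability read as ATP luminescence (CellTiter-Glo). The primary screen used 25 μM in triplicate, and follow-up potency runs used 9–16-point ranges spanning 0.01–100 μM.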

[2] = tested on: L. infantum promastigotes; assay: L. infantum promastigote viability, resazurin reduction; assay type: cell-based, Leishmania infantum; conditions: Leishmania infantum, 72 h; for viability at 2.5 µM: read-out: Residual viability, L. infantum promastigote (2.5 µM); for viability at 25 µM: read-out: Residual viability, L. infantum promastigote (25 µM)
Text: The infectivity of the parasites was boosted by passaging in Balb/c mice and culturing the infected lymph nodes after six weeks. L. infantum (MHOM / BR / 76 / M4192) parasite was passaged in the same media formulation with 0.5% urine.

Plasmodium berghei ANKA = tested on: Plasmodium berghei ANKA; design: method as in PMID 35749989; conditions: cited from earlier work
[3] = Body weight and tolerability during treatment in the mouse model; assay type: in vivo, Balb/c mice; conditions: for Body weight during treatment course: PHT-39 13.75 mg/kg i.p. or s.c., AmB 8 mg/kg i.p., vs DMSO
Protocol: L. major metacyclic promastigotes were prepared from a five day stationary phase culture through Ficoll gradient centrifugation according to previous studies with minor changes: Briefly, a 20% and 10% Ficoll gradient were prepared in PBS and M199 media, respectively and placed in a 14 ml falcon tube. Then, 1x10^9 L. major promastigotes were loaded on top of gradient and centrifuged. Metacyclic parasites were collected between two layers. Four groups of mice (n = 6) were challenged by subcutaneous injection of 2x10^6 stationary phase metacyclic promastigotes (50 μl in PBS) into the left hind footpad. Two weeks after infectious challenge, animals were treated by i.p or intralesional (s.c) PHT-39 injection (13.75 mg/kg body weight), daily or every other day, respectively, for ten days. AmB (8 mg/kg body weight) was applied as positive control drug (i.p injection for ten days) and 5% DMSO in distilled water was applied as negative control (s.c injection for ten days) (Table 1).
Every four days after the challenge, body weight was monitored and footpad swelling changes were measured (Footpad swelling = (height + width)/2) with a metric caliper (Kroeplin, IP65, D-series, external measuring gauge).

[4] = Leishmania infantum, J774, read-out: EC50 L. infantum rescue assay, intramacrophage (J774), 18 concentrations

Structure (SMILES): CC[C@@H](C)[C@H](c1nc2ccccc2n1Cc1cn(-c2ccc(C(F)(F)F)cc2)nn1)N1C(=O)c2ccccc2C1=O [PHT-39]
- EC50 [1, 4]: 1200 ± 3200 nM
- viability at 25 µM ([1]; Leishmania infantum, J774, rescue assay in J774, 25 µM, read-out: Residual viability, intracellular L. infantum amastigote (25 µM)): 16.3%
- EC50 ([1]; read-out: EC50 L. infantum rescue assay, intramacrophage (J774), 18 concentrations, listed as PH-39): 1210 ± 3200 nM
- Residual viability, intracellular L. infantum amastigote (25 µM) ([1]; rescue assay in J774, 25 µM, 25 µM): 16.34±4.67%
- viability at 2.5 µM (E. histolytica; read-out: Residual viability, E.histolytica (2.5 µM)): 81.6 ± 12.6%
- viability at 25 µM (E. histolytica; read-out: Residual viability, E.histolytica (25 µM)): 44.5 ± 9.9%
- viability at 2.5 µM [2]: 58.8 ± 1.22%
- viability at 25 µM [2]: 7.71 ± 1.03%
- Parasitemia and host survival, P. berghei ANKA infection model (Plasmodium berghei ANKA): considerable decrease in parasitemia and significantly extended host survival
- Body weight during treatment course [3]: did not affect the body weight
- Compound related toxicity in mice ([3]; intraperitoneal or subcutaneous injection for 10 and 5 days): did not expose any compound related toxicity

Structure (SMILES): C[C@@H]1[C@H](O)[C@@H](C)/C=C/C=C/C=C/C=C/C=C/C=C/C=C/[C@H](O[C@@H]2O[C@H](C)[C@@H](O)[C@H](N)[C@@H]2O)C[C@@H]2O[C@](O)(C[C@@H](O)C[C@@H](O)[C@H](O)CC[C@@H](O)C[C@@H](O)CC(=O)O[C@H]1C)C[C@H](O)[C@H]2C(=O)O [AmB, amphotericin B, reference compound]
- EC50 [1, 4]: 600 nM
- viability at 25 µM ([1]; Leishmania infantum, J774, read-out: Residual viability, intracellular L. infantum amastigote (25 µM)): 15.4 ± 6.9%
- EC50 ([1]; read-out: EC50 L. infantum rescue assay, intramacrophage (J774), 18 concentrations): 700 nM and 660 nM
- viability at 2.5 µM [2]: 2.55 ± 0.17%
- viability at 25 µM [2]: 5.4 ± 0.73%
- Body weight during treatment course [3]: significant differences with other groups
